Consider 1 compound from patent US11053248B2, “[1,2,4]triazolo[1,5-a]pyrimidine compounds as PDE2 inhibitors” (Janssen Pharmaceutica NV, priority 2016, dated 2021).

Molecules are shown by their SMILES.

The data set has as its system mossy fiber synapse. As to the kind of experiment: Effect on synaptic transmission: weak HFS-induced LTP, hippocampal slices (MEA). It is filed as cell-based, rat. The source says: Effect of Test Compounds on Synaptic Transmission Critical Reagents
Sucrose dissection buffer contained (in mM) sucrose (150), NaCl (40), KCl (4), NaH2PO4.H2O (0.3), MgCl.6H2O (7), NaHCO3 (26), CaCl2.2H2O (0.5), D-glucose (10), equilibrated with 95% O2 and 5% CO2 gas mixture. Artificial cerebrospinal fluid (ACSF) used during equilibration and recording contained (in mM): NaCl (124), KCl (2.7), NaH2PO4.H2O (1.25), MgSO4.7H2O (1.3), NaHCO3 (26), CaCl2.2H2O (2), D-glucose (10), Ascorbic acid (2), equilibrated with 95% O2 and 5% CO2 gas mixture. CNQX and Kynurenic acid were prepared in ACSF at a 50 μM and 1 mM concentration respectively. […] All reagents were from Sigma-Aldrich, unless otherwise indicated. […]
All data were recorded with a MEA set-up commercially available from MultiChannel Systems MCS GmbH (Reutlingen, Germany) composed of a 4-channel stimulus generator and a 60-channels amplifier head-stage connected to a 60-channels A/D card. […]
Extracellular field potential recordings. […] All data were recorded with a MEA set-up commercially available from MultiChannel Systems MCS GmbH (Reutlingen, Germany). Two adjacent electrodes of the chip were selected to stimulate the mossy fibres in the hilar region of the dentate gyrus and the fEPSP was recorded the terminal zone area of the CA3 region of the hippocampus. […]

As for `C[C@@H]1CCN(c2nccc3ccc(Br)cc23)C[C@H]1c1cc(C(F)F)nc2ncnn12` [Compound 1], where the note is “hippocampal slice, reported, in words”, the “penetration to the tissue” value was “poor”. Besides, the “effect on weak HFS-induction of long term potentiation (LTP)” value (mossy fiber synapse, hippocampal slices of male Sprague-Dawley rats, FIG. 1) is “did not facilitate the induction of LTP”.
